Measured values as given in ChEMBL document CHEMBL3885881, “DrugMatrix”.

Species: Rattus norvegicus
Assay: DrugMatrix - Regimen: Daily Repeat
Format: toxicity, organism-based, Sprague-Dawley
Parameters: regimen Daily Repeat, gender Male, age 6-8 weeks
Details: in vivo, po, route oral GAVAGE, […]; for ABSOLUTE BASOPHIL / ABSOLUTE EOSINOPHIL / ABSOLUTE LYMPHOCYTE / ABSOLUTE MONOCYTE / ABSOLUTE SEGMENTED NEUTROPHIL / BASOPHIL / EOSINOPHIL / ERYTHROCYTE COUNT / HEMATOCRIT / HEMOGLOBIN / LEUKOCYTE COUNT / LYMPHOCYTE / MEAN CORPUSCULAR HEMOGLOBIN / MEAN CORPUSCULAR HEMOGLOBIN CONCENTRATION / MEAN CORPUSCULAR VOLUME / MONOCYTE / NEUTROPHIL / NUCLEATED RED BLOOD CELLS / PLATELET COUNT: tissue Blood; for ALANINE AMINOTRANSFERASE / ALBUMIN / ALKALINE PHOSPHATASE / ASPARTATE AMINOTRANSFERASE / BLOOD UREA NITROGEN / CARBON DIOXIDE / CHLORIDE / CHOLESTEROL / CREATINE PHOSPHOKINASE / CREATININE / GLUCOSE / LACTATE DEHYDROGENASE / LIPASE / PHOSPHORUS / POTASSIUM / SODIUM / TOTAL BILIRUBIN / TOTAL PROTEIN / URIC ACID: tissue Plasma
[1] = 0 mg/kg, 72 h, dose level Control, time 3 day
[2] = 0 mg/kg, 120 h, dose level Control, time 5 day
[3] = 15 mg/kg, 72 h, dose level Low, time 3 day
[4] = 15 mg/kg, 120 h, dose level Low, time 5 day

CC(C)C(=O)Nc1ccc([N+](=O)[O-])c(C(F)(F)F)c1 [FLUTAMIDE]
ABSOLUTE BASOPHIL [1]: 0 CELLS/uL | ABSOLUTE EOSINOPHIL [1]: 13.67 CELLS/uL | ABSOLUTE LYMPHOCYTE [1]: 10069.5 CELLS/uL | ABSOLUTE MONOCYTE [1]: 50 CELLS/uL | ABSOLUTE SEGMENTED NEUTROPHIL [1]: 516.83 CELLS/uL | BASOPHIL [1]: 0% | EOSINOPHIL [1]: 0.17% | ERYTHROCYTE COUNT [1]: 5.44 x10E6/uL | HEMATOCRIT [1]: 33.88% | HEMOGLOBIN [1]: 13.23 G/DL | LEUKOCYTE COUNT [1]: 10.65 x10E3/uL | LYMPHOCYTE [1]: 94.67% | MEAN CORPUSCULAR HEMOGLOBIN [1]: 24.37 pg | MEAN CORPUSCULAR HEMOGLOBIN CONCENTRATION [1]: 39.05 G/DL | MEAN CORPUSCULAR VOLUME [1]: 62.38 fL | MONOCYTE [1]: 0.67% | NEUTROPHIL [1]: 4.5% | NUCLEATED RED BLOOD CELLS [1]: 0.33 /100WBC | PLATELET COUNT [1]: 414.5 x10E3/uL | ALANINE AMINOTRANSFERASE [1]: 72 u/L | ALBUMIN [1]: 3.75 G/DL | ALKALINE PHOSPHATASE [1]: 375 u/L | ASPARTATE AMINOTRANSFERASE [1]: 87.5 u/L | BLOOD UREA NITROGEN [1]: 14 mg/dL | CARBON DIOXIDE [1]: 27.5 mmol/L | CHLORIDE [1]: 95.83 MEQ/L | CHOLESTEROL [1]: 68.5 mg/dL | CREATINE PHOSPHOKINASE [1]: 284.33 u/L | CREATININE [1]: 0.16 mg/dL | GLUCOSE [1]: 156.67 mg/dL | LACTATE DEHYDROGENASE [1]: 101.83 u/L | LIPASE [1]: 9.67 u/L | PHOSPHORUS [1]: 10.33 mg/dL | POTASSIUM [1]: 5.22 MEQ/L | SODIUM [1]: 137.67 MEQ/L | TOTAL BILIRUBIN [1]: 0.13 mg/dL | TOTAL PROTEIN [1]: 5.43 G/DL | URIC ACID [1]: 0.8 mg/dL | ABSOLUTE BASOPHIL [2]: 0 CELLS/uL | ABSOLUTE EOSINOPHIL [2]: 20.67 CELLS/uL | ABSOLUTE LYMPHOCYTE [2]: 11518.33 CELLS/uL | ABSOLUTE MONOCYTE [2]: 47 CELLS/uL | ABSOLUTE SEGMENTED NEUTROPHIL [2]: 614 CELLS/uL | BASOPHIL [2]: 0% | EOSINOPHIL [2]: 0.17% | ERYTHROCYTE COUNT [2]: 5.61 x10E6/uL | HEMATOCRIT [2]: 34.25% | HEMOGLOBIN [2]: 13.38 G/DL | LEUKOCYTE COUNT [2]: 12.2 x10E3/uL | LYMPHOCYTE [2]: 94.33% | MEAN CORPUSCULAR HEMOGLOBIN [2]: 23.83 pg | MEAN CORPUSCULAR HEMOGLOBIN CONCENTRATION [2]: 39.08 G/DL | MEAN CORPUSCULAR VOLUME [2]: 61.03 fL | MONOCYTE [2]: 0.33% | NEUTROPHIL [2]: 5.17% | NUCLEATED RED BLOOD CELLS [2]: 0 /100WBC | PLATELET COUNT [2]: 941.83 x10E3/uL | ALANINE AMINOTRANSFERASE [2]: 68.83 u/L | ALBUMIN [2]: 4.12 G/DL | ALKALINE PHOSPHATASE [2]: 492.67 u/L | ASPARTATE AMINOTRANSFERASE [2]: 83.33 u/L | BLOOD UREA NITROGEN [2]: 14 mg/dL | CARBON DIOXIDE [2]: 37 mmol/L | CHLORIDE [2]: 98.67 MEQ/L | CHOLESTEROL [2]: 56.5 mg/dL | CREATINE PHOSPHOKINASE [2]: 167.33 u/L | CREATININE [2]: 0.17 mg/dL | GLUCOSE [2]: 157.5 mg/dL | LACTATE DEHYDROGENASE [2]: 104.83 u/L | LIPASE [2]: 10 u/L | PHOSPHORUS [2]: 10.43 mg/dL | POTASSIUM [2]: 5.46 MEQ/L | SODIUM [2]: 143.87 MEQ/L | TOTAL BILIRUBIN [2]: 0.17 mg/dL | TOTAL PROTEIN [2]: 5.72 G/DL | URIC ACID [2]: 0.85 mg/dL | ABSOLUTE BASOPHIL [3]: 0 CELLS/uL | ABSOLUTE EOSINOPHIL [3]: 10.67 CELLS/uL | ABSOLUTE LYMPHOCYTE [3]: 6470.33 CELLS/uL | ABSOLUTE MONOCYTE [3]: 86 CELLS/uL | ABSOLUTE SEGMENTED NEUTROPHIL [3]: 599.67 CELLS/uL | BASOPHIL [3]: 0% | EOSINOPHIL [3]: 0.33% | ERYTHROCYTE COUNT [3]: 5.25 x10E6/uL | HEMATOCRIT [3]: 32.9% | HEMOGLOBIN [3]: 13.03 G/DL | LEUKOCYTE COUNT [3]: 7.17 x10E3/uL | LYMPHOCYTE [3]: 91.67% | MEAN CORPUSCULAR HEMOGLOBIN [3]: 24.87 pg | MEAN CORPUSCULAR HEMOGLOBIN CONCENTRATION [3]: 39.6 G/DL | MEAN CORPUSCULAR VOLUME [3]: 62.8 fL | MONOCYTE [3]: 1% | NEUTROPHIL [3]: 7% | NUCLEATED RED BLOOD CELLS [3]: 0 /100WBC | PLATELET COUNT [3]: 851.33 x10E3/uL | ALANINE AMINOTRANSFERASE [3]: 92 u/L | ALBUMIN [3]: 3.97 G/DL | ALKALINE PHOSPHATASE [3]: 441.67 u/L | ASPARTATE AMINOTRANSFERASE [3]: 111 u/L | BLOOD UREA NITROGEN [3]: 12.33 mg/dL | CARBON DIOXIDE [3]: 27.67 mmol/L | CHLORIDE [3]: 95.5 MEQ/L | CHOLESTEROL [3]: 77.67 mg/dL | CREATINE PHOSPHOKINASE [3]: 476.67 u/L | CREATININE [3]: 0.33 mg/dL | GLUCOSE [3]: 152 mg/dL | LACTATE DEHYDROGENASE [3]: 156.33 u/L | LIPASE [3]: 13.67 u/L | PHOSPHORUS [3]: 9.97 mg/dL | POTASSIUM [3]: 5.27 MEQ/L | SODIUM [3]: 138.85 MEQ/L | TOTAL BILIRUBIN [3]: 0.17 mg/dL | TOTAL PROTEIN [3]: 5.23 G/DL | URIC ACID [3]: 0.7 mg/dL | ABSOLUTE BASOPHIL [4]: 0 CELLS/uL | ABSOLUTE EOSINOPHIL [4]: 0 CELLS/uL | ABSOLUTE LYMPHOCYTE [4]: 8137.67 CELLS/uL | ABSOLUTE MONOCYTE [4]: 25 CELLS/uL | ABSOLUTE SEGMENTED NEUTROPHIL [4]: 504 CELLS/uL | BASOPHIL [4]: 0% | EOSINOPHIL [4]: 0% | ERYTHROCYTE COUNT [4]: 6.06 x10E6/uL | HEMATOCRIT [4]: 36.17% | HEMOGLOBIN [4]: 13.93 G/DL | LEUKOCYTE COUNT [4]: 8.67 x10E3/uL | LYMPHOCYTE [4]: 94% | MEAN CORPUSCULAR HEMOGLOBIN [4]: 23.03 pg | MEAN CORPUSCULAR HEMOGLOBIN CONCENTRATION [4]: 38.53 G/DL | MEAN CORPUSCULAR VOLUME [4]: 59.7 fL | MONOCYTE [4]: 0.33% | NEUTROPHIL [4]: 5.67% | NUCLEATED RED BLOOD CELLS [4]: 0 /100WBC | PLATELET COUNT [4]: 1066.67 x10E3/uL | ALANINE AMINOTRANSFERASE [4]: 57 u/L | ALBUMIN [4]: 4.03 G/DL | ALKALINE PHOSPHATASE [4]: 326.67 u/L | ASPARTATE AMINOTRANSFERASE [4]: 78 u/L | BLOOD UREA NITROGEN [4]: 13.33 mg/dL | CARBON DIOXIDE [4]: 35.67 mmol/L | CHLORIDE [4]: 99.33 MEQ/L | CHOLESTEROL [4]: 75 mg/dL | CREATINE PHOSPHOKINASE [4]: 234.33 u/L | CREATININE [4]: 0.18 mg/dL | GLUCOSE [4]: 140 mg/dL | LACTATE DEHYDROGENASE [4]: 135.33 u/L | LIPASE [4]: 9.67 u/L | PHOSPHORUS [4]: 10.43 mg/dL | POTASSIUM [4]: 5.86 MEQ/L | SODIUM [4]: 143.57 MEQ/L | TOTAL BILIRUBIN [4]: 0.23 mg/dL | TOTAL PROTEIN [4]: 5.83 G/DL | URIC ACID [4]: 0.67 mg/dL
